Values quoted from earlier work, collected in patent US20250134097A1, “PERSISTENT SANITIZER” (priority 2020, published 2025).

Assays:
[1] = tested on: Adenovirus; conditions: in vitro; concentration-dependent; includes non-enveloped virus
[2] = tested on: microbes; conditions: benzalkonium chloride at 0.1-0.2%

In the case of Benzalkonium chloride, the antiviral activity [1] is listed as “some antiviral activity including non-enveloped activity” and the antimicrobial activity [2] is listed as “Broad antimicrobial activity”.
